# From patent US7307063B2, “Melanocortin metallopeptides for treatment of sexual dysfunction” (Palatin Technologies, Inc., priority 2001, dated 2007)
# Several values for one entry are separate records, joined by “and”; a condition that tells them apart may be missing. Equal entries are not always repeated. Non-standard residues stand in square brackets, D forms with d. No end group written: not given here. Tiq = 1,2,3,4-tetrahydroisoquinoline-1-carboxylic acid; dDip = N[C@@H](C(=O)O)C(c1ccccc1)c1ccccc1; Igl = N[C@H](C(=O)O)C1Cc2ccccc2C1; Nle = CCCC[C@H](N)C(=O)O
# Columns and labels:
# hMC2-R = molecular target: T1, hMC2-R (Homo sapiens, UniProt P41968); assay: Competitive binding assay of additional compounds, Table 6 hMC2-R; settings: 1 μM, mean of triplicate
# T1 construct: expressed in transfected cells; host or cells: HEK-293
# T1 sequence (P41968 whole entry): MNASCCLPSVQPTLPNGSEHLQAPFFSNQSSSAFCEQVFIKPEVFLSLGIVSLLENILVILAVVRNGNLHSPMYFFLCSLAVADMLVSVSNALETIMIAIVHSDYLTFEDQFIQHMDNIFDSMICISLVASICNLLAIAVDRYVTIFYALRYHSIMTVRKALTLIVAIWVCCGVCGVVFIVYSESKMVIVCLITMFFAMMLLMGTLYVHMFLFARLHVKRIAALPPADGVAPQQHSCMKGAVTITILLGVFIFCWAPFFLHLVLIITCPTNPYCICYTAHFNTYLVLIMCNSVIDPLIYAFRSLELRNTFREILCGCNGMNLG
# Protocol: [The source words this procedure for another target and reports this target under the same test.] (§1) Rhenium-complexed metallopeptides of the formulas given in Table 1 were prepared, with the metallopeptides complexed with rhenium using the rhenium transfer agent ReOCl3(PPh3)2 in the presence of 1,8-Diazabicyclo[5,4,0] undec-7-ene as a base, as disclosed in International Application PCT/US00/16396, filed Jun. 14, 2000, Melanocortin Metallopeptide Constructs, Combinatorial Libraries and Applications, incorporated by reference herein. Affinities of compounds were measured using membranes from HEK-293 cells containing cloned human melanocortin receptor subtypes 3, 4 and 5. MC1-R membranes were isolated from B16—F10 mouse melanoma cells. The assay tube also contained a chosen concentration of the test peptide of this invention, complexed to a rhenium metal ion as indicated, for determining its efficacy in inhibiting the binding of ^125I-NDP-α-MSH to its receptor. Non-specific binding was measured by complete inhibition of binding of ^125I-NDP-α-MSH in the assay with the presence of 1 μM α-MSH. 100% specific binding was defined as the difference in radioactivity (cpm) bound to cell membranes in the absence and presence of 1 μM α-MSH. The cpm obtained in presence of test compounds were normalized with respect to 100% specific binding to determine the percent inhibition of ^125I-NDP-α-MSH binding.
# (§2) Peptide sequences set forth in Table 6 were prepared using conventional synthetic means. The resulting sequences were rhenium-complexed to form metallopeptides, with the metallopeptides complexed with rhenium using the rhenium transfer agent ReOCl3(PPh3)2 in the presence of 1,8-Diazabicyclo[5,4,0] undec-7-ene as a base. Percent inhibition was determined as in Example 1 using the Re-complexed metallopeptides, using the same methods as described therein. All measures are means of triplicate determinations.
# MC4-R = molecular target: T2, MC4-R (Homo sapiens, UniProt P32245); assay: Competitive binding assay: inhibition of 125I-NDP-α-MSH binding to HEK-293 membranes with cloned human receptor subtype 4; settings: Table 6; 1 μM; mean of triplicate
# T2 construct: expressed in transfected cells; host or cells: HEK-293
# T2 sequence (P32245 whole entry): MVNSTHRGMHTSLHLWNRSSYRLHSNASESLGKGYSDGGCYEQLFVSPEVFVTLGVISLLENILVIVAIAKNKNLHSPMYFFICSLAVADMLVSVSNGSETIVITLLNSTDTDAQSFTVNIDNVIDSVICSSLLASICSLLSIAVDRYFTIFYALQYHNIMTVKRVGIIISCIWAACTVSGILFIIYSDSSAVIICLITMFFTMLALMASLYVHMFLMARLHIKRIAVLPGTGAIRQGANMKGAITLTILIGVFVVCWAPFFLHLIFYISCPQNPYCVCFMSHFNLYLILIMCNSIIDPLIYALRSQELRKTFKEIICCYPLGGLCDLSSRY
# Protocol: as §1, §2
# MC1-R = molecular target: T3, MC1-R (Mus musculus, UniProt Q01727); assay: Competitive binding assay: inhibition of 125I-NDP-α-MSH binding to membranes from B16-F10 mouse melanoma cells; settings: Table 6; 1 μM; mean of triplicate
# T3 construct: MC1-R membranes were isolated from B16—F10 mouse melanoma cells; endogenous in cells; host or cells: B16-F10 mouse melanoma cells
# T3 sequence (Q01727 whole entry): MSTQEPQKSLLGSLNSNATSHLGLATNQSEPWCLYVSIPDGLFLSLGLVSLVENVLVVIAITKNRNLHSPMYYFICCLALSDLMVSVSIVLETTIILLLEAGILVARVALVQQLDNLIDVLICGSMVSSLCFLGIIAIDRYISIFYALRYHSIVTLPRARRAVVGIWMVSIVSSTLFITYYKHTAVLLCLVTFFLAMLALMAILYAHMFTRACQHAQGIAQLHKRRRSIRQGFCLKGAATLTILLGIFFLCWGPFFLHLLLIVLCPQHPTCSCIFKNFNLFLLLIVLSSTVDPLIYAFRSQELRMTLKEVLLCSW
# Protocol: as §1, §2
# hMC5-R = molecular target: T4, hMC5-R (Homo sapiens, UniProt P33032); assay: Competitive binding assay: inhibition of 125I-NDP-α-MSH binding to HEK-293 membranes with cloned human receptor subtype 5; settings: Table 6; 1 μM; mean of triplicate
# T4 construct: expressed in transfected cells; host or cells: HEK-293
# T4 sequence (P33032 whole entry): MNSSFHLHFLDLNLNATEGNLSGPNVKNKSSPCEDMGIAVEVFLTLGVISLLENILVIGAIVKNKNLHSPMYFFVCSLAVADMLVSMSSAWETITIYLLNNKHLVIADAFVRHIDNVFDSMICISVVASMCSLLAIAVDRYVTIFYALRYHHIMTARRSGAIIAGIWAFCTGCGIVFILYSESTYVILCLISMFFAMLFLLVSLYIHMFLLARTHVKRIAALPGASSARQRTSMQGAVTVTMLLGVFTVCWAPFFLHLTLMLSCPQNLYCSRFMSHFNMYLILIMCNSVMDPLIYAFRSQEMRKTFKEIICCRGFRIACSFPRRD
# Protocol: as §1, §2
% Inhibition of Binding hMC2-R (hMC2-R),% Inhibition of Binding hMC4-R (MC4-R),% Inhibition of Binding MC1-R (MC1-R),% Inhibition of Binding hMC5-R (hMC5-R),Substance
22%,65%,95%,82%,Ac-Nle-Ala-His-D-Phe-Arg-Nal 1′-Cys-NH2
85%,88%,85%,100%,Hept-Ser(Bzl)-D-Phe(4′-Cl)-Arg-Trp-Cys-NH2
6%,1%,8%,2%,3′-Bromo phenyl acetyl-Arg-Thr-D-Phe(4′-Cl)-Cys-NH2
87%,99% and 93%,94% and 84%,88%,3′-Br Phenyl acetyl-Arg-Arg-D-Phe(4′-Me)-Cys-NH2
3%,16%,53%,56%,Tiq-D-Phe-Arg-Cys-Trp-NH2 (Tiq-[dF]RCW-NH2; also: metal complex)
7% and 0%,14% and 20%,38% and 36%,67% and 64%,[Igl][dF]RCW-NH2
0%,34%,5%,23%,D-Tiq-D-Phe-Arg-Trp-Cys-NH2
0%,0%,39%,5%,Amb-D-Phe-Arg-Trp-Cys-NH2
41%,62%,18%,76%,Tic-D-Phe(3′-Cl)-Arg-Trp-Cys-NH2
15%,3%,41%,40%,3′-Br-Phenylacetyl-His-D-Phe(4′-Cl)-Trp-Cys-NH2
1%,8%,0%,41%,D-Igl-D-Nal 2′-Arg-Cys-NH2
0%,2%,77%,28%,Ac-[Nle]H[dF]RCW-NH2
0%,62%,70%,36%,[Igl][dF]RWC-NH2
0%,0%,39%,1%,Amb-D-Phe-Arg-Cys-Trp-NH2
0%,90%,100%,54%,Ac-Nle-Ala-His-D-Phe-Arg-D-Nal 2′-Cys-NH2
70%,95%,22%,100%,NH2-(CH2)6-CO-Ser(Bzl)-D-Nal 2′-Arg-Nal 2′-Cys-NH2
0%,4%,7%,8%,Amc-D-Phe-Arg-Cys-Trp-NH2
52%,92%,10%,83%,Tic-D-Nal-2′-Arg-Trp-Cys-NH2
8%,2%,58%,53%,[dDip][dF]RCW-NH2
77%,96% and 74%,4% and 10%,83%,3′-Br Phenyl acetyl-Lys-Ala-D-Phe(4′-CF3)-Cys-Trp-NH2
